From patent US11567074B2, “Methods for identifying proteins that bind ligands” (University of Pittsburgh—Of the Commonwealth System of …, priority 2016, dated 2023)
“And” between values parts separate entries of the source, which are not always exact repeats. Identical values can stand only once. “Also recorded” adds a separate entry of the source.

Assays:
DRP1 = target: T1, DRP1 (Homo sapiens, UniProt O00429); experiment: Western blot thermal shift (CETSA) in a2780cis lysate, DRP1; format: binding; details: 20 μM mdivi-1, a2780cis cytoplasmic lysate, 44-60° C., vs vehicle
T1 construct: Lysates of A2780cis cells were prepared identically as DISRUPT experiments outlined above; endogenous in cells; host or cells: a2780cis cells, cleared lysate
Method: (§1) Protein quantification by western blot was employed to confirm the relative abundance of DPP3 remaining in solution following treatment with mdivi-1, heating and centrifugation. Cytoplasmic lysates from a2780cis ovarian cancer cells were treated with 20 μM mdivi-1 of and heated to 44° C., 48° C., 52° C., 56° C., and 60° C., in singlicate; the western blot is shown in FIG. 9D. β-actin was used as a control blot to show an unchanging […] intensity as a function of temperature. […] DPP3 activity was measured using a polypeptide cleavage assay that measures a decrease in fluorescence due to the removal of an n-terminal bound fluorophore. Fluorescence was measured as a function of dose, as shown in FIG. 9E; the control and quench assays for the functional assay are shown in FIG. 9D.
(§2) The lysate stock was placed on ice until thawed.
(§3) Lysates of A2780cis cells were prepared identically as DISRUPT experiments outlined above. The soluble protein was separated on Tris-glycine gels (Invitrogen). The separated proteins were blotted onto a polyvinylidene difluoride (PVDF) membrane and non-specific binding was blocked overnight at 4° C. in phosphate-buffered saline containing 0.1% Tween 20 and 10% nonfat dry milk (blocking buffer). Membranes were incubated with primary antibodies, DPP3 (GeneTex), Drpl (BD Biosciences), and β-actin (Sigma-Aldrich), in blocking buffer overnight at 4° C. […]

β-actin = target: T2, β-actin (Homo sapiens, UniProt P60709); experiment: Western blot thermal shift (CETSA) in a2780cis lysate, β-actin control; format: binding; details: 20 μM mdivi-1, a2780cis cytoplasmic lysate, control protein
T2 construct: Lysates of A2780cis cells were prepared identically as DISRUPT experiments outlined above; endogenous in cells; host or cells: a2780cis cells, cleared lysate
Method: as §1, §2, §3

[1] = target: T3, dipeptidyl peptidase 3 (DPP3) (Homo sapiens, UniProt Q9NY33); experiment: DISRUPT label-free differential mass spectrometry, a2780cis lysate; format: binding; details: 20 μM mdivi-1, a2780cis lysate, 56° C. for ten minutes, n=6 per condition
T3 construct: endogenous in cells; host or cells: a2780cis cells (Sigma Aldrich), cleared freeze-thaw lysate
T3 sequence (Q9NY33 1-737): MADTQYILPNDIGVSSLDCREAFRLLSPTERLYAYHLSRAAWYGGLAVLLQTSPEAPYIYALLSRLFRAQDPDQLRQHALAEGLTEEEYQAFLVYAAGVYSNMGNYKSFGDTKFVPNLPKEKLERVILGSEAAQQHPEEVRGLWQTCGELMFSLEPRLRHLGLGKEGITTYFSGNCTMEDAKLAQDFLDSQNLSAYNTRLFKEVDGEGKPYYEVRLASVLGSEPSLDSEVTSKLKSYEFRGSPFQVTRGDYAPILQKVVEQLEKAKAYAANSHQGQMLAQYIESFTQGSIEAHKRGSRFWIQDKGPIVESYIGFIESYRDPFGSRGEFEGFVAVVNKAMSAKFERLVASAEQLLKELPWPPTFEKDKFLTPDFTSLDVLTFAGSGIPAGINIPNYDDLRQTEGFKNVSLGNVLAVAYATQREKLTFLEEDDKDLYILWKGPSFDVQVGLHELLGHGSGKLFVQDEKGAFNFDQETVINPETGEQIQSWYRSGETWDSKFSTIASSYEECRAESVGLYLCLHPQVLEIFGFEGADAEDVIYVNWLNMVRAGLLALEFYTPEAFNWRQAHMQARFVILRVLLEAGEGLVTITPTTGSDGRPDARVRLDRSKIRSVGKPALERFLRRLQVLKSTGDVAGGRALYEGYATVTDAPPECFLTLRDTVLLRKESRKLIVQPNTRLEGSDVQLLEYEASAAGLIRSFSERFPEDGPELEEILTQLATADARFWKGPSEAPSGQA
Method: Equal aliquots of a2780cis cells were treated with 20 μM mdivi-1 and DMSO respectively, split into six technical replicates per condition, and heated to 56° C. for ten minutes to stimulate differential agglutination of drug-bound and unbound proteins. […] Data-dependent MS/MS data was analyzed and results in the identification of 35,369 features linked to 5488 unique peptides sequences that were associated with 947 proteins. Features […] having non-zero intensity values in at least four of six samples per condition were selected, and a Student's t-test was applied to compute a p value for each feature, and a volcano plot was created to show the distribution of features as a function of fold change and significance, as shown in the volcano plot in FIG. 7A. Two of the significant features were identified as peptide […] (SEQ ID NO: 2) deriving from dipeptidyl peptidase 3, DPP3, using MS/MS spectra acquired during the initial dMS experiment. The 6 remaining highly significant features were identified as peptides […] (SEQ ID NO: 6), […] (SEQ ID NO: 4), and […] (SEQ ID NO: 1) that are specific to the protein sequence for DPP3, using MS/MS spectra acquired in subsequent analyses.
as §2
Samples were denatured and digested utilizing the FASP method described by Wisniewski et al. (2009) and Manza et al. (2005). […]

[2] = system: tumor cells including cisplatin resistant ovarian cancers cells; details: wide range of tumor cells incl. cisplatin resistant ovarian cancer cells; cited from earlier work
DPP3 [3] = target: T4, DPP3 (Homo sapiens, UniProt Q9NY33); experiment: DPP3 activity assay (fluorogenic polypeptide cleavage); format: biochemical; set-up: purchased BPS Bioscience 80203; details: IC50 upon DPP3 activity, purified recombinant DPP3, substrate Arg2-AMC, fluorescence as a function of dose
T4 sequence (Q9NY33 1-737): T3 sequence (Q9NY33 1-737)
Method: as §1
The inhibition of DPP3 peptidase activity by mdivi-1 was evaluated using a commercially available fluorogenic DPP3 Assay Kit (catalog number 80203, BPS Bioscience, San Diego Calif.) that contains purified recombinant DPP3 protein and DPP3 substrate Arg2-AMC. The fluorescence intensity was measured using a microplate reader, Synergy 2 (BioTek instruments).

DPP3 [4] = target: T4, DPP3; experiment: Western blot thermal shift (CETSA) in a2780cis lysate, DPP3; format: binding; set-up: endogenous in cells; host or cells: a2780cis cells (Sigma Aldrich), cleared freeze-thaw lysate; details: 20 μM mdivi-1, a2780cis cytoplasmic lysate, 44-60° C., vs vehicle
Method: as §1, §2, §3

[5] = target: T5, Huntingtin-interacting protein K, HYPK (Homo sapiens, UniProt Q9NX55); experiment: DISRUPT label-free differential mass spectrometry, K562 lysate, HYPK; format: binding; details: 2 μM staurosporine, 56° C. for ten minutes, n=10 per condition
T5 construct: endogenous in cells; host or cells: K562 cells (ATCC), cleared lysate in kinase buffer
T5 sequence (Q9NX55 1-121): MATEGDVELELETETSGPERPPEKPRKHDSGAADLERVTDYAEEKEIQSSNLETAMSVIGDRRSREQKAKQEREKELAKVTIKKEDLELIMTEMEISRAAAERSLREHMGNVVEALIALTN
Method: Samples were heated to 56° C. for ten minutes to stimulate protein agglutination (protein clumping) and agglutinated proteins were removed from solution by centrifugation at 20,000 g.
To measure the relative abundance of proteins in solution, lysates were subjected to tryptic digestion, desalting and quantitative proteomic analysis. Peptide samples were separated by reversed phase C18 nanoflow liquid chromatography (nLC), ionized by electrospray ionization, and analyzed with a hybrid ion trap/high-resolution Fourier transform mass spectrometer. […] To enhance the quantification of the vast number of molecular features present in high-resolution data, the acquisition of full-scan MS spectra were prioritized over the collection of MS/MS spectra that are used for peptide identification, resulting in approximately 10 quantitative measurements per chromatographic peak.
Samples were analyzed in a balanced run order to compensate for drifts in mass spectrometry response that occurs as a function of time. Each sample was analyzed once and the resulting data file was uploaded to a cloud-based data analysis platform, CHORUS (www.chorusproject.org), that was developed to support the efficient analysis of high-resolution mass spectrometry data. Label-free differential mass spectrometry (dMS) was used to quantify hundreds of thousands of features detected by nLC-MS analysis. […]

T1 sequence (O00429 whole entry): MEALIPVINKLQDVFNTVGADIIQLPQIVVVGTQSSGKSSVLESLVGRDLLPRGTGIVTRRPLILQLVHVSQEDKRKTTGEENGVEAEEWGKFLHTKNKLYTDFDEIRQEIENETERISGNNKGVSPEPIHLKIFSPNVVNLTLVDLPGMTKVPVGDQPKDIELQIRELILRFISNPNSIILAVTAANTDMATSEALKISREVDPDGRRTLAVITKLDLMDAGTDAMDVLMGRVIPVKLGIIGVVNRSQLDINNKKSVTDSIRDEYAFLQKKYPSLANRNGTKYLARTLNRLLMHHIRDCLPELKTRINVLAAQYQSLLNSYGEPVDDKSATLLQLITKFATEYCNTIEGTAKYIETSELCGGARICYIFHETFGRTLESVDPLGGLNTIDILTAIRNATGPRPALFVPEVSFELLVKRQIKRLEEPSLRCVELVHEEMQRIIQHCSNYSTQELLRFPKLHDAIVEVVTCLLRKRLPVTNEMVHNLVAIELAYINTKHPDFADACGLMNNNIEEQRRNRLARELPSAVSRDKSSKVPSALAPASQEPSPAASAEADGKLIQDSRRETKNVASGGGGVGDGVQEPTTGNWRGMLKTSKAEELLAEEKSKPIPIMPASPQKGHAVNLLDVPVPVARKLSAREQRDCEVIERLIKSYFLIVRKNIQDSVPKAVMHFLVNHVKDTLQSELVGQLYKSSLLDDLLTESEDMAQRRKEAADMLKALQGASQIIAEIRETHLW

COc1cc(-n2c(S)nc3ccccc3c2=O)c(Cl)cc1Cl [mdivi-1]
thermal shift of DRP1 (western blot) (DRP1): no evidence of a thermal shift; also recorded: no shifts were observed | thermal shift of β-actin (western blot) (β-actin): no shifts were observed | DISRUPT ranking / significant features of DPP3 [1]: eight DPP3 peptides from 18 features were significant; also recorded: top putative target | killing of tumor cells [2]: robust killing | IC50 (DPP3 [3]): ~70 nM and 70 nM | thermal shift of DPP3 (protein remaining in solution, western blot) (DPP3 [4]): remained in solution at 52 °C and 56 °C at higher levels compared to vehicle treated controls; also recorded: a strong shift was seen for DPP3

CN[C@@H]1C[C@H]2O[C@@](C)([C@@H]1OC)n1c3ccccc3c3c4c(c5c6ccccc6n2c5c31)C(=O)NC4 [staurosporine]
peptides identified among the 15 highly significant features (p<0.0001), HYPK [5]: one peptide
